1 compound from patent US12557812B2, “Method and composition for water treatment” (BROMINE COMPOUNDS LTD., priority 2019, dated 2026) can be followed below.

For data set [1], the system named is Pseudomonas aeruginosa biofilm. As to the kind of experiment: Sequential application of CDA then biocide on 3-day-old biofilm grown in CDC biofilm reactor (single tube method). To be noted: biocide 10 ppm. It counts as cell-based.
Data set [2] deals with P. aeruginosa (ATCC 700888) massive biofilm. Description: Sequential CDA then biocide on massive biofilm grown in drip flow tubes (modified ASTM 2647-13). It counts as cell-based, Pseudomonas aeruginosa. The settings on record: 30.0 ppm DBNPA 3 h after 310 nM CDA 2 h (FIG. 18). From the text: The effect of the sequential addition of CDA and bromine-containing biocide was studied using P. aeruginosa biofilm grown in the drip flow tubes (according to a modification of standard ASTM 2647-13, standard Test Method for Quantification of Pseudomonas aeruginosa Biofilm Grown Using Drip Flow Biofilm Reactor with Low Shear and Continuous Flow). This method produces massive biofilm resulting with harsh conditions that are very difficult to treat. The addition of the bromine-containing biocide took place 120 min after the addition of 310 nM CDA (the biocide that was tested in this study was DBNPA).
• a) A continuous once-through tube system was configured by using silicone coated latex tubes, connected to a peristaltic pump via additional silicone tubing. • b) The silicone coated latex tubes were inoculated by syringe injection of overnight cultures of P. aeruginosa (ATCC 700888), 5*10^7 CFU/ML in 10% TSB (Tryptic Soy Broth). […]
The following treatments were conducted: • 1. […] Each dilution was cultured in duplicate (on R2A agar) for colony growth using the pour plating method. • h) The plates were incubated at 36° C. for 17-20 h. • i) The appropriate number of colonies were counted. […]

For data set [3], the system named is P. aeruginosa strain PA14 biofilm. As to the kind of experiment: Simultaneous application of CDA and biocide on 3-day biofilm in 24-well plates. The settings on record: 15 ppm DBNPA, 310 nM CDA, two hours (FIG. 3). The format is cell-based, Pseudomonas aeruginosa. As to the method:
(§1) The effect of bromine-containing biocide in combination with CDA on pre-grown biofilms was studied. The experiment was carried out utilizing (A) the P. aeruginosa strain PA14 and (B) mixed bacterial species derived from environmental and industrial water.
(§2) Bacteria were cultured in EPRI medium supplemented with Hutners mineral solution and glucose (0.2%). Microorganisms were incubated at room temperature (22° C.), under aerobic conditions with shaking. The biofilm culture system used included polystyrene 24-well plates that were treated with protein to enhance attachment and growth of biofilm bacteria according to the method described in Davies D G, Marques C N, 2009, J Bacteriol 191:1393-1403.
(§3) Following inoculation with 1 mL bacterial culture, spent medium was removed and replaced with sterile medium every 24 hours for 3 days, and a final medium exchange was performed 3 hours prior to treatment. Additionally, the medium was exchanged prior to treatment in order to remove planktonic bacteria. Treatments consisted of 100 μL of 310 nM CDA and bromine-containing biocide, or bromine-containing biocide alone at concentrations used in commercial water treatment, water was used as a carrier, for a contact time determined by activity of each biocide and ranging from 1 hour to 24 hours, as detailed below for each of the tested biocides.
Following the treatment, the medium from each well was removed by pipet and 1 mL of DE neutralization broth was added in order to stop the treatment. Bacteria from each well were then removed by scraping the biofilm formed in the well with a sterile cell-scraper, and 1.0 mL of culture was transferred to chilled (4° C.) 9.0 mL DE neutralizing broth and homogenized for 15 seconds at 40,000 rpm on ice. Further dilutions were performed prior to enumeration (further neutralizing biocide activity). Recovery of bacteria were tested at different dilutions of biocide in water, in LB medium with thioglycolate and in DE neutralizing broth to ensure the active agent was properly neutralized. Viable bacteria were enumerated via the drop plate method. Each biocide was evaluated using 24-well plates with 8 wells each for the control cultures (Ctl) inoculated with P. aeruginosa but not treated, a CDA minus test (−CDA) treated with bromine-containing biocide only, and a CDA plus test treated with bromine-containing biocide and CDA (+CDA).

Data set [4] can be described thus: Storage stability of biocide/CDA liquid concentrates (HPLC). The format is physicochemical. The settings on record: Example 6 concentrate C103-PEG200-H2O-CDA-BHT 20:50:30:0.1:0.1; 25° C., two months. As to the method:
22 mg of cis-2-decenoic acid (CiVentiChem, 96.72% purity) were charged into 50 ml flask, equipped with a stirrer 3.99 gr of C-103 (ICL, batch 640160147) were added, followed by 9.97 gr of PEG200 (Merck 8.07483.5000 Lot 56904983 451), 5.95 gr of DI water and 22 mg of BHT (Aldrich B1378-100G, BCBH9491V). The obtained solution was stirred till complete clarification; sonication at +30° C. is recommended if some particles are observed. Clear colorless solution of a total […] and 20:50:30:0.1:0.1 weight ratio of C103-PEG200-H2O-CDA-BHT was obtained.
The solution was tested to determine the stability of the biocide and CDA and under storage at 25° C. over a two-month period.
47.6 mg or cis-2-decenoic acid (CiVentiChem, 96.72% purity) were charged into 50 ml flask, equipped with a stirrer. 9.01 gr of Bronopol (ICL, batch 17101607) were added, followed by 18.03 gr of propylene glycol (Biolab 16200201 Lot 1007861), 3.0 gr of DI water and 31.2 mg of BHT (Aldrich B1378-100G, BCBH9491V). After stirring for several minutes, undissolved traces of BHT were filtered through filtering paper for BHT particle removal. Clear colorless solution of a total 30 gr and 30:60:10:0.158:0.1 weight ratio of Bronopol-PG-H2O-CDA-BHT was obtained.

The test system of data set [5] is undefined mixed microbial biofilm cultures derived from an environmental water source. As to the kind of experiment: Simultaneous CDA and biocide on mixed biofilm from environmental water, 24-well plates. It counts as cell-based. The settings on record: 15 ppm DBNPA, 310 nM CDA, two hours (FIG. 5A). As to the method: as §1, §2
as §3, with “biocides. […]” for “biocides.”

Data set [6] relates to biofilm culture derived from fresh-water mixed microbial community obtained from cooling tower water. Description: Simultaneous CDA and biocide on mixed biofilm from cooling tower water, 24-well plates. It counts as cell-based. To be noted: 15 ppm DBNPA, 310 nM CDA, two hours (FIG. 5B). The procedure: as §1, §2
as §3, with “biocides. […]” for “biocides.”

Regarding `N#CC(Br)(Br)C(N)=O` [DBNPA, 2,2-dibromo-3-nitrilopropionamide], the “Log reduction vs. control: biocide alone” value in data set [1] (1 h contact time, 3-day-old biofilm) is around 3 log units. For the same compound, the Enhancement in data set [1] (310 nM CDA combination vs biocide alone) is given as around 2 log units. Also, the “Log reduction vs. control: combination of the 310 nM CDA and biocide” value in data set [1] (1 h CDA 310 nM then 1 h biocide) is reported as around 5 log units. Further, the “enhancement by combined treatment relative to biocide alone” value in data set [1] (text of Example 2, 310 nM commercial CDA (97% by GC)) is “two”. In data set [1] (text of Example 2, 1 h), the “biofilm reduction by biocide alone” value is “reduces the biofilm”. The “enhancement of biocidal effect by combined treatment over biocide alone” value in data set [2] is reported as around 2 log orders. For the same compound, the figures for the “effect of biocide and CDA compared with biocide alone” value in data set [3], in data set [5] and in data set [6] were “improved effect”, “improved result” and “improved result”, respectively. For the same compound, the “degradation under storage (HPLC)” value in data set [4] is recorded as “Neither DBNPA nor CDA underwent degradation”.
